The text below walks through data of PubChem BioAssay AID330 (DTP/NCI, 2004).

Where “and” joins values, the source holds several entries; their conditions need not be identical. Equal values may be shown once. Toxic doses and inconclusive results are not listed.

This assay has as its system P388 leukemia ip, CD2F1 mice, survival T/C. The assay can be described thus: NCI In Vivo Anticancer Drug Screen. Data for tumor model P388 Leukemia (intraperitoneal) in CD2F1 (CDF1) mice. The conditions noted are these: endpoint: median survival time, higher = longer survival. An outline of the steps: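 Mice carrying the transplanted tumor received test compound or vehicle. Survival was recorded in each group, and the value is the treated-group measurement divided by that of the vehicle-treated control group.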

The mark [1] stands for this setting: dose: 200.0 mg/kg/injection, schedule: Q01DX009 (ip), vehicle: saline with Tween-80.
Setting [2] is: dose: 400.0 mg/kg/injection, schedule: Q01DX009 (ip), vehicle: saline with Tween-80.
Setting [3] is: dose: 50.0 mg/kg/injection, schedule: Q01DX009 (ip), vehicle: saline with Tween-80.
The mark [4] stands for this setting: dose: 100.0 mg/kg/injection, schedule: Q01DX009 (ip), vehicle: saline with Tween-80.
[5] abbreviates: dose: 60.0 mg/kg/injection, schedule: Q01DX005 (ip), vehicle: saline with Tween-80.
The mark [6] stands for this setting: dose: 120.0 mg/kg/injection, schedule: Q01DX005 (ip), vehicle: saline with Tween-80.
Setting [7] is: dose: 240.0 mg/kg/injection, schedule: Q01DX005 (ip), vehicle: saline with Tween-80.
The mark [8] stands for this setting: dose: 50.0 mg/kg/injection, schedule: Q01DX009 (ip), vehicle: saline.
[9] abbreviates: dose: 100.0 mg/kg/injection, schedule: Q01DX009 (ip), vehicle: saline.
Where [10] appears, read: dose: 200.0 mg/kg/injection, schedule: Q01DX009 (ip), vehicle: saline.
[11] abbreviates: dose: 50.0 mg/kg/injection, schedule: Q01DX009 (ip), vehicle: Klucel (hydroxypropylcellulose) (HPC).
Setting [12] is: dose: 100.0 mg/kg/injection, schedule: Q01DX009 (ip), vehicle: Klucel (hydroxypropylcellulose) (HPC).
Where [13] appears, read: dose: 200.0 mg/kg/injection, schedule: Q01DX009 (ip), vehicle: Klucel (hydroxypropylcellulose) (HPC).
Where [14] appears, read: dose: 25.0 mg/kg/injection, schedule: Q01DX005 (ip), vehicle: saline.
[15] abbreviates: dose: 50.0 mg/kg/injection, schedule: Q01DX005 (ip), vehicle: saline.
The mark [16] stands for this setting: dose: 100.0 mg/kg/injection, schedule: Q04DX003 (ip), vehicle: Klucel (hydroxypropylcellulose) (HPC).
[17] abbreviates: dose: 200.0 mg/kg/injection, schedule: Q04DX003 (ip), vehicle: Klucel (hydroxypropylcellulose) (HPC).
[18] abbreviates: dose: 50.0 mg/kg/injection, schedule: Q01DX005 (ip), vehicle: saline with Tween-80.
Where [19] appears, read: dose: 100.0 mg/kg/injection, schedule: Q01DX005 (ip), vehicle: saline with Tween-80.
[20] abbreviates: dose: 200.0 mg/kg/injection, schedule: Q01DX005 (ip), vehicle: saline with Tween-80.
Where [21] appears, read: dose: 100.0 mg/kg/injection, schedule: Q04DX003 (ip), vehicle: saline with Tween-80.
The mark [22] stands for this setting: dose: 200.0 mg/kg/injection, schedule: Q04DX003 (ip), vehicle: saline with Tween-80.

Take `CCOC(=O)c1ccc(NC(=O)Nc2nccs2)cc1`: the T/C reads like this: under setting [1], 162 % of control; under setting [2], 92 % of control.
Consider `NC(N)=O.NC(N)=O.NC(N)=O.NC(N)=O.NC(N)=O.NC(N)=O.[Fe+3].[O-][Cl+3]([O-])([O-])O`, for which the T/C by setting is: under setting [3], 96 % of control; under setting [4], 91 % of control; under setting [1], 102 % of control.
Turning to `O=C(/C(=C(/[O-])C(F)(F)F)[n+]1cccc2ccccc21)C(F)(F)F`, the T/C under setting [5] is 104 % of control, the T/C under setting [6] is 91 % of control and the T/C under setting [7] was 99 % of control.
Turning to `COC1OC(COS(C)(=O)=O)C(O)C(O)C1OS(C)(=O)=O` (centres undefined), the T/C is 110 % of control under setting [8], 106 % of control under setting [9] and 106 % of control under setting [10].
Turning to `O=C1CC(=O)N2C=CC=CC2N1` (centres undefined), the T/C (dose: 25.0 mg/kg/injection, schedule: Q01DX009 (ip), vehicle: Klucel (hydroxypropylcellulose) (HPC)) was 106 % of control; the T/C under setting [11] was 106 % of control; the T/C under setting [12] is 97 % of control; the T/C under setting [13] is 97 % of control.
With `CC1CCCC2COCN12` (centres undefined), the T/C reads like this: (dose: 12.5 mg/kg/injection, schedule: Q01DX005 (ip), vehicle: saline) 105 % of control and 98 % of control; under setting [14], 105 % of control and 106 % of control; under setting [15], 101 % of control and 116 % of control and 118 % of control; (dose: 100.0 mg/kg/injection, schedule: Q01DX005 (ip), vehicle: saline) 123 % of control and 96 % of control; (dose: 200.0 mg/kg/injection, schedule: Q01DX005 (ip), vehicle: saline) 115 % of control.
As to `COc1ccc(SSc2ccc(OC)n[n+]2[O-])[n+]([O-])n1`, the T/C is 103 % of control (dose: 10.0 mg/kg/injection, schedule: Q01DX001 (ip), vehicle: Klucel (hydroxypropylcellulose) (HPC)) and 111 % of control (dose: 200.0 mg/kg/injection, schedule: Q01DX001 (ip), vehicle: Klucel (hydroxypropylcellulose) (HPC)).
For `[Br][Sn]([CH2][Sn]([Br])([c]1ccccc1)[c]1ccccc1)([c]1ccccc1)[c]1ccccc1`, the T/C (dose: 6.25 mg/kg/injection, schedule: Q01DX005 (ip), vehicle: Klucel (hydroxypropylcellulose) (HPC)) is 110 % of control.
For `CCOC(=O)C(CC(C)C(C)=O)C(=O)OCC` (centres undefined), the T/C by setting is: (dose: 12.5 mg/kg/injection, schedule: Q01DX009 (ip), vehicle: other) 93 % of control; (dose: 25.0 mg/kg/injection, schedule: Q01DX009 (ip), vehicle: other) 90 % of control; (dose: 50.0 mg/kg/injection, schedule: Q01DX009 (ip), vehicle: other) 94 % of control; (dose: 100.0 mg/kg/injection, schedule: Q01DX009 (ip), vehicle: other) 97 % of control; (dose: 200.0 mg/kg/injection, schedule: Q01DX009 (ip), vehicle: other) 103 % of control.
`O=C(O)c1cc(C(=O)O)c(C(=O)O)cc1C(=O)O.[NH2-].[NH2-].[NH2-].[NH2-].[Pt+2].[Pt+2]`: the T/C (dose: 0.78 mg/kg/injection, schedule: Q01DX005 (ip), vehicle: water) is 106 % of control; the T/C (dose: 1.56 mg/kg/injection, schedule: Q01DX005 (ip), vehicle: suspension in saline) is 108 % of control; the T/C (dose: 1.56 mg/kg/injection, schedule: Q01DX005 (ip), vehicle: water) is 115 % of control; the T/C (dose: 3.12 mg/kg/injection, schedule: Q01DX005 (ip), vehicle: saline) was 113 % of control; the T/C (dose: 3.13 mg/kg/injection, schedule: Q01DX005 (ip), vehicle: water) was 119 % of control; the T/C (dose: 6.25 mg/kg/injection, schedule: Q01DX005 (ip), vehicle: saline) was 105 % of control. For the same compound, the T/C (dose: 6.25 mg/kg/injection, schedule: Q01DX005 (ip), vehicle: suspension in saline) is 118 % of control; the T/C (dose: 9.0 mg/kg/injection, schedule: Q01DX005 (ip), vehicle: suspension in saline) was 110 % of control; the T/C (dose: 12.5 mg/kg/injection, schedule: Q01DX005 (ip), vehicle: suspension in saline) was 161 % of control; the T/C (dose: 12.5 mg/kg/injection, schedule: Q01DX005 (ip), vehicle: water) was 166 % of control; the T/C under setting [14] is 153 % of control; the T/C (dose: 25.0 mg/kg/injection, schedule: Q01DX005 (ip), vehicle: suspension in saline) was 174 % of control and 176 % of control. Also, the T/C is, setting by setting: (dose: 41.67 mg/kg/injection, schedule: Q01DX005 (ip), vehicle: suspension in saline) 150 % of control; under setting [15], 186 % of control.
Take `COc1ccc(/C(=N/N)c2ccccc2)cc1`: the T/C was 100 % of control under setting [16] and 114 % of control under setting [17].
Take `COC(=O)C1(CC(=O)c2ccc(C)cc2)NC(=S)NC(=O)C1C#N` (centres undefined): the T/C was 100 % of control (dose: 60.0 mg/kg/injection, schedule: Q01DX005 (ip), vehicle: saline); 104 % of control (dose: 120.0 mg/kg/injection, schedule: Q01DX005 (ip), vehicle: saline); 100 % of control (dose: 240.0 mg/kg/injection, schedule: Q01DX005 (ip), vehicle: saline).
As to `BrC/C(=N\N=C(/CBr)c1ccccc1)c1ccccc1`, the T/C is 103 % of control under setting [11], 112 % of control under setting [12] and 96 % of control under setting [13].
On to `Oc1ccc2ccccc2c1CN(Cc1c(O)ccc2ccccc12)C1CCCCC1`, for which the T/C is 97 % of control under setting [18], 96 % of control under setting [19] and 104 % of control under setting [20].
For `Nc1ccc(S(=O)(=O)Nc2ccccc2-c2nc(N)nc(N)n2)cc1`, the T/C under setting [3] is 98 % of control, the T/C under setting [4] was 97 % of control, the T/C under setting [1] is 94 % of control and the T/C under setting [2] is 101 % of control.
For the compound `NC(CS)C(=O)O.[Cl-].[Cl-].[Cl-].[Cl-].[Pt+2]` (centres undefined), the T/C is, setting by setting: (dose: 12.5 mg/kg/injection, schedule: Q01DX009 (ip), vehicle: saline) 104 % of control; (dose: 25.0 mg/kg/injection, schedule: Q01DX009 (ip), vehicle: saline) 95 % of control; under setting [8], 95 % of control; under setting [9], 99 % of control; under setting [10], 95 % of control.
For `N#CNc1nnnn1-c1ccc(-n2nnnc2NC#N)cc1` (tested in a mixture with another compound), the T/C under setting [16] was 92 % of control; the T/C under setting [17] is 91 % of control; the T/C (dose: 400.0 mg/kg/injection, schedule: Q04DX003 (ip), vehicle: Klucel (hydroxypropylcellulose) (HPC)) is 90 % of control.
As for `O=c1cc(-c2ccccc2)[nH]c2c1CCCC2`, the T/C under setting [4] was 116 % of control; the T/C under setting [2] was 176 % of control and 186 % of control.
Take `CCOC(CCC1(C)C(=O)CCC1=O)(OCC)OCC`: the T/C reads like this: under setting [5], 106 % of control; under setting [6], 106 % of control; under setting [7], 99 % of control.
For `Cc1ccnc(N=Cc2ccccc2O)c1`, the T/C under setting [11] is 104 % of control, the T/C under setting [12] is 100 % of control and the T/C under setting [13] is 100 % of control.
As for `O=S1(=O)CC2(N3CCOCC3)CCCCC21` (centres undefined), the T/C is 95 % of control under setting [21]; 100 % of control under setting [22]; 95 % of control (dose: 400.0 mg/kg/injection, schedule: Q04DX003 (ip), vehicle: saline with Tween-80).
On to `C#CCOC(=O)c1ccc(C(=O)OCC#C)cc1`, for which the T/C under setting [21] is 100 % of control and the T/C under setting [22] is 90 % of control.
Turning to `CC(N[Si](c1ccccc1)(c1ccccc1)C(C)(C)C)c1ccccc1` (centres undefined), the T/C is, setting by setting: under setting [18], 98 % of control; under setting [19], 97 % of control; under setting [20], 97 % of control.
In the case of `O=C=Nc1ccc(Cc2ccc(N=C=O)cc2)cc1`, the T/C under setting [12] was 103 % of control; the T/C under setting [13] was 98 % of control; the T/C (dose: 400.0 mg/kg/injection, schedule: Q01DX009 (ip), vehicle: Klucel (hydroxypropylcellulose) (HPC)) was 93 % of control.
